According to US20080200460A1, “Chemical Compounds” (priority 2004, published 2008):

Molecular target: recombinant human CCR5 receptor (Homo sapiens, UniProt P51681)
Assay: in vitro radioligand binding assay: inhibition of binding of iodinated MIP-1α (scintillation proximity)
Settings: displacement of iodinated MIP-1α from membranes of Chinese hamster ovary cells expressing recombinant human CCR5; negative log10 of IC50; average if tested more than once
Experimental: The ability of compounds to inhibit the binding of MIP-1α was assessed by an in vitro radioligand binding assay. Membranes were prepared from Chinese hamster ovary cells which expressed the recombinant human CCR5 receptor. These membranes were incubated with […] iodinated MIP-1α, scintillation proximity beads and various concentrations of the compounds of the invention in 96-well plates. The amount of iodinated MIP-1α bound to the receptor was determined by scintillation counting. Competition curves were obtained for compounds and the concentration of compound which displaced 50% of bound iodinated MIP-1α was calculated (IC50).
Results from this test for certain compounds of the invention are presented in Table V. In Table V the results are presented as Pic50 values. A Pic50 value is the negative log (to base 10) of the IC50 result, so an IC50 of 1 μM (that is 1×10^−6M) gives a Pic50 of 6. If a compound was tested more than once then the data below is an average of the probative tests results.

Chain of recombinant human CCR5 receptor (P51681 whole entry): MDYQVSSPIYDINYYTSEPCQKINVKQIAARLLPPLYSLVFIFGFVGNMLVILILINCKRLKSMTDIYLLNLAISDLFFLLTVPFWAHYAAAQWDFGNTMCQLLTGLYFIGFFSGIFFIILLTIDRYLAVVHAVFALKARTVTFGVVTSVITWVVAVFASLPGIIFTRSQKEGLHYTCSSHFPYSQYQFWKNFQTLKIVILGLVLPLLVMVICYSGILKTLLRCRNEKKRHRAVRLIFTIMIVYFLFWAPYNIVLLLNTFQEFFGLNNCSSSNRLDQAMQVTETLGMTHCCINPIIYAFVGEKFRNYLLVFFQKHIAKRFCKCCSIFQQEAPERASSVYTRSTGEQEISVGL

Question: Which IC50 does the source give for `CCN(C(=O)CC1CCN(S(C)(=O)=O)CC1)C1CCN(CC[C@H](c2ccc(S(C)(=O)=O)cc2)c2cc(F)cc(F)c2)CC1` [Compound 1 Table III, N-(1-{(3R)-3-(3,5-difluorophenyl)-3-[4-(methylsulphonyl)phenyl]propyl}piperidin-4-yl)-N-ethyl-2-[1-(methylsulphonyl)piperidin-4-yl]acetamide] here?
Answer: 0.794 nM

Question: For `CCN(C(=O)NCC1CCN(S(C)(=O)=O)CC1)C1CCN(CC[C@H](c2ccc(S(C)(=O)=O)cc2)c2cc(F)cc(F)c2)CC1` [Compound 1 Table IV], which IC50 is on record?
Answer: 0.316 nM

Question: With `CCN(C(=O)CC1CCOCC1)C1CCN(CC[C@H](c2ccc(S(C)(=O)=O)cc2)c2cc(F)cc(F)c2)CC1` [Compound 2 Table III, N-(1-{(3R)-3-(3,5-difluorophenyl)-3-[4-(methylsulphonyl)phenyl]propyl}piperidin-4-yl)-N-ethyl-2-(tetrahydro-2H-pyran-4-yl)acetamide] as the compound, how does the IC50 read?
Answer: 15.8 nM

Question: With `CCN(C(=O)CN1CCN(S(C)(=O)=O)CC1)C1CCN(CC[C@@H](c2cc(F)cc(F)c2)C2CCN(S(C)(=O)=O)CC2)CC1` [Compound 5 Table I, N-(1-{(3R)-3-(3,5-difluorophenyl)-3-[1-(methylsulfonyl)piperidin-4-yl]propyl}piperidin-4-yl)-N-ethyl-2-[4-(methylsulfonyl)piperazin-1-yl]acetamide] as the compound, how does the IC50 read?
Answer: 3.16 nM

Question: Which IC50 does the source give for `C=CCN(C(=O)CC1CCN(S(C)(=O)=O)CC1)C1CCN(CC[C@@H](c2cc(F)cc(F)c2)C2CCN(S(C)(=O)=O)CC2)CC1` [Compound 7 Table I, N-allyl-N-(1-{(3R)-3-(3,5-difluorophenyl)-3-[1-(methylsulfonyl)piperidin-4-yl]propyl}piperidin-4-yl)-2-[1-(methylsulfonyl)piperidin-4-yl]acetamide] here?
Answer: 0.316 nM
